Molecular target: T1, recombinant human c-MET kinase enzyme domain (Homo sapiens, UniProt P08581)
T1 construct: Recombinant c-Met kinase domain (amino acids 960-1390); His (N); made in house; host or cells: baculovirus expression system (insect cells; SF21 is named only for the alternative format)
Assay: c-MET receptor tyrosine kinase Homogeneous Time Resolved Fluorescence assay (HTRF)
Format: biochemical
Conditions: Biological Example 1 and/or Biological Example 2
Summary of the method: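 His-tagged c-Met kinase domain (aa 960-1390, baculovirus) phosphorylated biotinylated poly-Glu-Tyr (37 nM) with 20 μM ATP in HEPES pH 7.4, Mg/Mn, DTT, 1% DMSO, 20 min at ambient temperature, EDTA-stopped. HTRF read (PT66-Eu/streptavidin-XL665, 665/620 nm ratio) after 4 h; IC50 from eight 1:3.16 dilutions.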

T1 sequence (P08581 960-1390): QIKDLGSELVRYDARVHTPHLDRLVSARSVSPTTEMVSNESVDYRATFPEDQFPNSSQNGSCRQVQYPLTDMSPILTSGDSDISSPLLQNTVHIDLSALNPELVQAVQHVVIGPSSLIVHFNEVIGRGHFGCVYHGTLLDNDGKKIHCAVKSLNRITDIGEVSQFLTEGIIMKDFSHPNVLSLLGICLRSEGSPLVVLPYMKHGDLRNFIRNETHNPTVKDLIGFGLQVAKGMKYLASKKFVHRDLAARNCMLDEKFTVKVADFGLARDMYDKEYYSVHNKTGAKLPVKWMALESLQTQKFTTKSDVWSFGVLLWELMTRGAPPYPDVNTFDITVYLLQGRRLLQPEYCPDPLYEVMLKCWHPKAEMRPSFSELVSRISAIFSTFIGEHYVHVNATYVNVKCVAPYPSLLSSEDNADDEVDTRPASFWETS

## CC1=C(C#N)C(c2ccc3[nH]nc(-c4cnn(C5CCNCC5)c4)c3c2)C(C#N)=C(C)N1 [compound 157, 1,4-dihydro-2,6-dimethyl-4-[3-[1-(4-piperidinyl)-1H-pyrazol-4-yl]-1H-indazol-5-yl]-3,5-pyridinedicarbonitrile]
  IC50: < 100 nM

## CC(=O)c1n[nH]c2ccc(C3C(C#N)=C(C)NC(C)=C3C#N)cc12 [compound 158, 4-(3-acetyl-1H-indazol-5-yl)-1,4-dihydro-2,6-dimethyl-3,5-pyridinedicarbonitrile]
  IC50: < 100 nM

## CO/N=C/c1n[nH]c2ccc(C3C(C#N)=C(C)NC(C)=C3C#N)cc12 [compound 159, 1,4-dihydro-4-[3-[(E)-(methoxyimino)methyl]-1H-indazol-5-yl]-2,6-dimethyl-3,5-pyridinedicarbonitrile]
  IC50: < 100 nM

## CC1=C(C#N)C(c2ccc3[nH]nc(/C(C)=N/O)c3c2)C(C#N)=C(C)N1 [compound 160, 1,4-dihydro-4-[3-[(1E)-1-(hydroxyimino)ethyl]-1H-indazol-5-yl]-2,6-dimethyl-3,5-pyridinedicarbonitrile]
  IC50: < 100 nM

## CC1=C(C#N)C(c2ccc3[nH]nc(NCc4ccc(N5CCOCC5)cc4)c3c2)C(C#N)=C(C)N1 [compound 163, 1,4-dihydro-2,6-dimethyl-4-[3-[[[4-(4-morpholinyl)phenyl]methyl]amino]-1H-indazol-5-yl]-3,5-pyridinedicarbonitrile]
  IC50: < 100 nM

## CC1=C(C#N)C(c2ccc3[nH]nc(N4CCNCC4)c3c2)C(C#N)=C(C)N1 [compound 164, 1,4-dihydro-2,6-dimethyl-4-[3-(1-piperazinyl)-1H-indazol-5-yl]-3,5-pyridinedicarbonitrile]
  IC50: < 100 nM

## CC1=C(C#N)C(c2ccc3[nH]nc(CN4CCN(CCO)CC4)c3c2)C(C#N)=C(C)N1 [compound 166, 1,4-dihydro-4-[3-[[4-(2-hydroxyethyl)-1-piperazinyl]methyl]-1H-indazol-5-yl]-2,6-dimethyl-3,5-pyridinedicarbonitrile]
  IC50: < 100 nM

## CC1=C(C#N)C(c2ccc3[nH]nc(NCc4ccc(C(=O)N5CCC(O)C5)cc4)c3c2)C(C#N)=C(C)N1 (stereo not drawn) [compound 168, 1,4-dihydro-4-[3-[[[4-[(3-hydroxy-1-pyrrolidinyl)carbonyl]phenyl]methyl]amino]-1H-indazol-5-yl]-2,6-dimethyl-3,5-pyridinedicarbonitrile]
  IC50: < 100 nM

## CC1=C(C#N)C(c2ccc3[nH]nc(C(F)(F)F)c3c2)C(C#N)=C(C)N1 [compound 169, 1,4-dihydro-2,6-dimethyl-4-[3-(trifluoromethyl)-1H-indazol-5-yl]-3,5-pyridinedicarbonitrile]
  IC50: 500 to 2500 nM

## CC1=C(C#N)C(c2ccc3[nH]nc(-c4ncc[nH]4)c3c2)C(C#N)=C(C)N1 [compound 170, 1,4-dihydro-4-[3-(1H-imidazol-2-yl)-1H-indazol-5-yl]-2,6-dimethyl-3,5-pyridinedicarbonitrile]
  IC50: < 100 nM

## CC1=C(C#N)C(c2ccc3[nH]nc(NCc4ccc(N(C)CCO)cc4)c3c2)C(C#N)=C(C)N1 [compound 172, 1,4-dihydro-4-[3-[[[4-[(2-hydroxyethyl)methylamino]phenyl]methyl]amino]-H-indazol-5-yl]-2,6-dimethyl-3,5-pyridinedicarbonitrile]
  IC50: < 100 nM

## CC1=C(C#N)C(c2ccc3[nH]nc(-c4cn[nH]c4)c3c2)C(C#N)=C(C)N1 [compound 173, 1,4-dihydro-2,6-dimethyl-4-[3-(1H-pyrazol-4-yl)-1H-indazol-5-yl]-3,5-pyridinedicarbonitrile]
  IC50: < 100 nM

## CC1=C(C#N)C(c2ccc3[nH]nc(-c4cnn(C)c4)c3c2)C(C#N)=C(C)N1 [compound 174, 1,4-dihydro-2,6-dimethyl-4-[3-(1-methyl-1H-pyrazol-4-yl)-1H-indazol-5-yl]-3,5-pyridinedicarbonitrile]
  IC50: < 100 nM

## CC1=C(C#N)C(c2ccc3[nH]nc(-c4ccon4)c3c2)C(C#N)=C(C)N1 [compound 175, 1,4-dihydro-4-[3-(3-isoxazolyl)-1H-indazol-5-yl]-2,6-dimethyl-3,5-pyridinedicarbonitrile]
  IC50: < 100 nM

## CC1=C(C#N)C(c2ccc3[nH]nc(O)c3c2)C(C#N)=C(C)N1 [compound 176, 1,4-dihydro-4-(3-hydroxy-1H-indazol-5-yl)-2,6-dimethyl-3,5-pyridinedicarbonitrile]
  IC50: 500 to 2500 nM

## CC1=C(C#N)C(c2ccc3[nH]nc(-c4cnco4)c3c2)C(C#N)=C(C)N1 [compound 177, 1,4-dihydro-2,6-dimethyl-4-[3-(5-oxazolyl)-1H-indazol-5-yl]-3,5-pyridinedicarbonitrile]
  IC50: < 100 nM

## CC1=C(C#N)C(c2ccc3[nH]nc(-c4cccs4)c3c2)C(C#N)=C(C)N1 [compound 178, 1,4-dihydro-2,6-dimethyl-4-[3-(2-thienyl)-1H-indazol-5-yl]-3,5-pyridinedicarbonitrile]
  IC50: < 100 nM

## CNC(=O)c1cccc(C2C(C#N)=C(C)NC(C)=C2C#N)n1 [compound 189, 3′,5′-dicyano-1′,4′-dihydro-N,2′,6′-trimethyl-[2,4′-bipyridine]-6-carboxamide]
  IC50: 500 to 2500 nM

## CC1=C(C#N)C(c2cccc(C(=O)Nc3cccnc3)n2)C(C#N)=C(C)N1 [compound 190, 3′,5′-dicyano-1′,4′-dihydro-2′,6′-dimethyl-N-3-pyridinyl-[2,4′-bipyridine]-6-carboxamide]
  IC50: 100 to 500 nM

## CC1=C(C#N)C(c2cccc(C(=O)NCCCn3ccnc3)n2)C(C#N)=C(C)N1 [compound 191, 3′,5′-dicyano-1′,4′-dihydro-N-[3-(1H-imidazol-1-yl)propyl]-2′,6′-dimethyl-[2,4′-bipyridine]-6-carboxamide]
  IC50: 100 to 500 nM

## CC1=C(C#N)C(c2cccc(C(=O)Nc3ccccn3)n2)C(C#N)=C(C)N1 [compound 192, 3′,5′-dicyano-1′,4′-dihydro-2′,6′-dimethyl-N-2-pyridinyl-[2,4′-bipyridine]-6-carboxamide]
  IC50: < 100 nM

## CC1=C(C#N)C(c2cnc3[nH]ncc3c2)C(C#N)=C(C)N1 [compound 204, 1,4-dihydro-2,6-dimethyl-4-(1H-pyrazolo[3,4-b]pyridin-5-yl)-3,5-pyridinedicarbonitrile]
  IC50: < 100 nM

## COC(=O)c1cccc(C2C(C#N)=C(C)NC(c3ccccc3)=C2C#N)c1 (stereo not drawn) [compound 219, 3-(3,5-dicyano-1,4-dihydro-2-methyl-6-phenyl-4-pyridinyl)-benzoic acid, methyl ester]
  IC50: < 100 nM

## COC(=O)c1cccc(C2C(C#N)=C(C)NC(C3CCCN(C(C)=O)C3)=C2C#N)c1 (stereo not drawn) [compound 229, 3-[2-(1-acetyl-3-piperidinyl)-3,5-dicyano-1,4-dihydro-6-methyl-4-pyridinyl]-benzoic acid, methyl ester]
  IC50: 100 to 500 nM

## COC(=O)c1cccc(C2C(C#N)=C(C)NC(C3CCCN(C(N)=O)C3)=C2C#N)c1 (stereo not drawn) [compound 230, 3-[2-[1-(aminocarbonyl)-3-piperidinyl]-3,5-dicyano-1,4-dihydro-6-methyl-4-pyridinyl]-benzoic acid, methyl ester]
  IC50: 100 to 500 nM

## COC(=O)c1cccc(C2C(C#N)=C(C)NC(c3cccc([N+](=O)[O-])c3)=C2C#N)c1 (stereo not drawn) [compound 232, 3-[3,5-dicyano-1,4-dihydro-2-methyl-6-(3-nitrophenyl)-4-pyridinyl]-benzoic acid, methyl ester]
  IC50: 500 to 2500 nM

## COC(=O)c1cccc(C2C(C#N)=C(C)NC(c3ccc([N+](=O)[O-])cc3)=C2C#N)c1 (stereo not drawn) [compound 233, 3-[3,5-dicyano-1,4-dihydro-2-methyl-6-(4-nitrophenyl)-4-pyridinyl]-benzoic acid, methyl ester]
  IC50: 500 to 2500 nM

## COC(=O)c1cccc(C2C(C#N)=C(C)NC(c3ccc(O)cc3)=C2C#N)c1 (stereo not drawn) [compound 234, 3-[3,5-dicyano-1,4-dihydro-2-(4-hydroxyphenyl)-6-methyl-4-pyridinyl]-benzoic acid, methyl ester]
  IC50: 100 to 500 nM

## COC(=O)c1cccc(C2C(C#N)=C(C)NC(c3cccc(N)c3)=C2C#N)c1 (stereo not drawn) [compound 235, 3-[2-(3-aminophenyl)-3,5-dicyano-1,4-dihydro-6-methyl-4-pyridinyl]-benzoic acid, methyl ester]
  IC50: 100 to 500 nM

## COC(=O)c1cccc(C2C(C#N)=C(C)NC(c3ccc(N)cc3)=C2C#N)c1 (stereo not drawn) [compound 236, 3-[2-(4-aminophenyl)-3,5-dicyano-1,4-dihydro-6-methyl-4-pyridinyl]-benzoic acid, methyl ester]
  IC50: 100 to 500 nM

## CNC(=O)c1cccc(C2C(C#N)=C(C)NC(c3ccc(N)cc3)=C2C#N)c1 (stereo not drawn) [compound 238, 3-[2-(4-aminophenyl)-3,5-dicyano-1,4-dihydro-6-methyl-4-pyridinyl]-N-methyl-benzamide]
  IC50: 500 to 2500 nM

## CNC(=O)c1cccc(C2C(C#N)=C(C)NC(c3ccc(O)cc3)=C2C#N)c1 (stereo not drawn) [compound 239, 3-[3,5-dicyano-1,4-dihydro-2-(4-hydroxyphenyl)-6-methyl-4-pyridinyl]-N-methyl-benzamide]
  IC50: 500 to 2500 nM

## CNC(=O)c1cccc(C2C(C#N)=C(C)NC(c3ccccc3)=C2C#N)c1 (stereo not drawn) [compound 240, 3-(3,5-dicyano-1,4-dihydro-2-methyl-6-phenyl-4-pyridinyl)-N-methyl-benzamide]
  IC50: 500 to 2500 nM

## CC1=C(C#N)C(c2cccc(C(=O)NCCCn3ccnc3)c2)C(C#N)=C(c2cccc(N)c2)N1 (stereo not drawn) [compound 246, 3-[2-(3-aminophenyl)-3,5-dicyano-1,4-dihydro-6-methyl-4-pyridinyl]-N-[3-(1H-imidazol-1-yl)propyl]-benzamide]
  IC50: 100 to 500 nM

## CC1=C(C#N)C(c2ccc3[nH]ncc3c2)C(C#N)=C(c2ccccc2)N1 (stereo not drawn) [compound 249, 1,4-dihydro-4-(1H-indazol-5-yl)-2-methyl-6-phenyl-3,5-pyridinedicarbonitrile]
  IC50: < 100 nM

## CC1=C(C#N)C(c2ccc3[nH]ncc3c2)C(C#N)=C(c2cccc([N+](=O)[O-])c2)N1 (stereo not drawn) [compound 250, 1,4-dihydro-4-(1H-indazol-5-yl)-2-methyl-6-(3-nitrophenyl)-3,5-pyridinedicarbonitrile]
  IC50: < 100 nM

— patent publication US8198456B2, “Dihydropyridine derivatives as useful as protein kinase inhibitors” (Bayer Intellectual Property GmbH, priority 2006, dated 2012)
